How the values were obtained:
[1] = tested on: E. faecium D344SRF pCWR624Δpbp5_pbp5_V6; assay: MIC by broth microdilution, pbp5_V6; type: cell-based, Enterococcus faecium; conditions: strain pbp5_V6 (E284A_E291A_S294A_N295A); 37 °C, 20 h; n=3
Protocol: (§1) The synthetic genes were purchased from GeneWiz (South Plainfield, NJ). The ribosome binding site sequence AGGAGG (Shine-Dalgarno), and a string of five A’s followed by the sequence […], that corresponds to the first 15 bp found in pbp5 from E. faecium C68 were added upstream of the START codon. The terminator sequence […] was added downstream of the STOP codon. BamHI restriction sites were added to the flanking 5′ and 3′ ends. The synthetic genes were inserted into the vector pCWR624Δpbp5. This vector was derived from pCWR624[10], in which the pbp5 gene from D366 was excised by digestion with BamHI followed by re-ligation of the vector, allowing subsequent insertion of modified synthetic pbp5s into the BamHI site downstream of ftsWEfm and psr from E. faecium C68[10]. The synthetic genes were inserted in a BamHI site located downstream of psr. The proper orientation was confirmed by PCR amplification using the forward primer OR_pbp5_FOR_1 (5′-[…]-3′) and the reverse primer OR_pbp5_REV_1 (5′-[…]-3′). Plasmids were sequence verified for the specific binding site mutations. The resulting constructions were electroporated into the natural pbp5(-) mutant E. faecium D344SRF with a selection on brain heart infusion agar (BHI) plates containing kanamycin (1500 µg/ml).
(§2) E. faecium strains were streaked fresh from −80 °C stored glycerol stocks onto brain heart infusion (BHI) agar plates and incubated for 18 h at 37 °C. Strains harboring the plasmid derivatives were grown under antibiotic pressure on agar plates containing kanamycin at 1500 µg/ml. A single colony was inoculated into BHI or BHI-kanamycin (1500 µg/ml) for overnight cultures (18 h).
(§3) MIC determination was performed using a standard broth microdilution technique in duplicate from independent cultures. Overnight cultures were inoculated into 3 ml of BHI or BHI-kanamycin (1500 µg/ml) broth in a dilution of 1:100 and incubated until an OD600 of ~0.5 was reached. Cultures were diluted 1:1000 and inoculated into the 96-well plates with the corresponding antibiotics to be tested. Plates were incubated at 37 °C for 20 h and read by eye. […]

[2] = tested on: E. faecium D344SRF pCWR624 (PBP5 plasmid); assay: MIC by broth microdilution, pCWR624; type: cell-based, Enterococcus faecium; conditions: strain pCWR624; 37 °C, 20 h; n=3
Protocol: as §1, §2, §3

[3] = tested on: E. faecium D344SRF pCWR624Δpbp5_pbp5_V5; assay: Disk diffusion assay, pbp5_V5; type: cell-based, Enterococcus faecium; conditions: strain pbp5_V5 (Q396A_E397A); 37 °C, 24 h; n=3
Protocol: as §1, §2
(§4) Antibiotic disks used were manufactured by BD BBL^TM. Disk diffusion assays were performed according to the Clinical and Laboratory Standards Institute (CLSI) guidance. Overnight cultures were inoculated into 3 ml of BHI or BHI-kanamycin (1500 µg/ml) broth with a dilution of 1:100 and incubated until an OD600 of ~0.5 was reached. […] The plates were incubated at 37 °C and the zones of inhibition were measured after 24 h. […]

[4] = tested on: E. faecium D344SRF pCWR624 (PBP5 plasmid); assay: Disk diffusion assay, pCWR624; type: cell-based, Enterococcus faecium; conditions: strain pCWR624; 37 °C, 24 h; n=3
Protocol: as §1, §2, §4

[5] = tested on: E. faecium D344SRF pCWR624Δpbp5_pbp5_V2; assay: MIC by broth microdilution, pbp5_V2; type: cell-based, Enterococcus faecium; conditions: strain pbp5_V2 (N523A_Q627A); 37 °C, 20 h; n=3
Protocol: as §2

[6] = tested on: PBP5; assay: Bocillin FL fluorescence polarization binding competition assay; parameters: species or system Enterococcus faecium; conditions: antibiotic fixed 60 μM, PBP5 3.6 µM, Bocillin FL 30 nM, 37 °C, n = 3
Protocol: The assays were performed in low-volume 384-well black polystyrene assay plate (Corning, 4511), using assay buffer (100 mM Na-phosphate pH 7.0, 0.01% Triton X-100) to prevent the adsorption of Bocillin FL (Invitrogen, B13233) to the plate. Bocillin FL was dissolved in DMSO and stored as a 1 mM stock in the −20 °C freezer. Fresh working stock of Bocillin FL was made each day for the assays by diluting the stock with the assay buffer for a final concentration of 30 nM. The final concentration of PBP5 for the assays was 3.6 µM. The antibiotic, either penicillin G, ceftaroline or ceftriaxone, was added to PBP5 before the reactions were initiated by the addition of Bocillin FL. The plate was sealed with ThermalSeal RT silicone adhesive film (EXCEL Scientific, TSS-RTQ-100) to prevent evaporation during the measurements. Reaction without PBP5 (Bocillin FL only) was used as negative control. All reactions were carried out at 37 °C in a CLARIOStar plate reader (BMG Labtech) equipped with the 482 nm excitation filter, 530 nm emission filter and a dichroic filter LP504. The focal height was adjusted to 11.3 mm and the gain was set to 10 mP using the negative control. Measurements were made at 40 s intervals for up to 75 min with 100 flashes per measurement. Three replicates were made for each treatment in each run, and the experiment was repeated 3 times.

[7] = tested on: PBP5-S422A; assay: 1D 1H STD NMR of SP2 with PBP5-S422A; type: binding, Enterococcus faecium; conditions: for STD amplification factor, 2000: 2 s saturation
Description: Total saturation time for STD measurements was 2 s.
Overlapped peaks were completely excluded from the analysis.

CO/N=C(\C(=O)N[C@@H]1C(=O)N2C(C(=O)O)=C(CSc3nc(=O)c(=O)[nH]n3C)CS[C@H]12)c1csc(N)n1 [Ceftriaxone, ceftriaxone]
MIC (µg/ml) [Range] [1]: > 3200 [>3200] µg/ml | MIC (µg/ml) [Range] [2]: > 3200 [3200->3200] µg/ml | Zone Size (mm) [Range] [3]: 0 [0] mm | Zone Size (mm) [Range] [4]: 0 [0] mm | MIC (µg/ml) [Range] [5]: 50 [50-100] µg/ml | binding/inhibition of PBP5, in words [6]: does not bind/inhibit PBP5 | binding/inhibition of PBP5, in words ([6]; listed as ceftriaxone): does not bind

D-Lac-L-Ala-D-iGln-L-Lys(D-iAsn) [SP2]
STD % to SP1 ([7]; 1H DLacβ): 42.7391% | STD amplification factor as fraction of highest SP1:PBP5 value ([7]; 1H DLacβ): 0.4274 | STD amplification factor, 2000 ([7]; 1H DLacβ): 11.5004 | STD % to SP1 ([7]; 1H DQ2β (first listed)): 84.4303% | STD amplification factor as fraction of highest SP1:PBP5 value ([7]; 1H DQ2β (first listed)): 0.8443 | STD amplification factor, 2000 ([7]; 1H DQ2β (first listed)): 22.7188 | STD % to SP1 ([7]; 1H DQ2β (second listed)): 106.599% | STD amplification factor as fraction of highest SP1:PBP5 value ([7]; 1H DQ2β (second listed)): 1.066 | STD amplification factor, 2000 ([7]; 1H DQ2β (second listed)): 28.6841 | STD % to SP1 ([7]; 1H DQ2γ): 33.2164% | STD amplification factor as fraction of highest SP1:PBP5 value ([7]; 1H DQ2γ): 0.3322 | STD amplification factor, 2000 ([7]; 1H DQ2γ): 8.938 | STD % to SP1 ([7]; 1H K3α): 52.4105% | STD amplification factor as fraction of highest SP1:PBP5 value ([7]; 1H K3α): 0.5241 | STD amplification factor, 2000 ([7]; 1H K3α): 14.1028 | STD % to SP1 ([7]; 1H K3β): 115.403% | STD amplification factor as fraction of highest SP1:PBP5 value ([7]; 1H K3β): 1.154 | STD amplification factor, 2000 ([7]; 1H K3β): 31.053 | STD % to SP1 ([7]; 1H K3γ): 71.5712% | STD amplification factor as fraction of highest SP1:PBP5 value ([7]; 1H K3γ): 0.7157 | STD amplification factor, 2000 ([7]; 1H K3γ): 19.2587 | STD % to SP1 ([7]; 1H K3δ): 86.8848% | STD amplification factor as fraction of highest SP1:PBP5 value ([7]; 1H K3δ): 0.8688 | STD amplification factor, 2000 ([7]; 1H K3δ): 23.3793 | STD % to SP1 ([7]; 1H K3ε): 15.5454% | STD amplification factor as fraction of highest SP1:PBP5 value ([7]; 1H K3ε): 0.1555 | STD amplification factor, 2000 ([7]; 1H K3ε): 4.183 | STD % to SP1 ([7]; 1H LA1α): 31.0506% | STD amplification factor as fraction of highest SP1:PBP5 value ([7]; 1H LA1α): 0.3105 | STD amplification factor, 2000 ([7]; 1H LA1α): 8.355 | STD % to SP1 ([7]; 1H LA1β): 44.3762% | STD amplification factor as fraction of highest SP1:PBP5 value ([7]; 1H LA1β): 0.4438 | STD amplification factor, 2000 ([7]; 1H LA1β): 11.9409 | STD % to SP1 ([7]; 1H iNα,DQ2α): 24.4286% | STD amplification factor as fraction of highest SP1:PBP5 value ([7]; 1H iNα,DQ2α): 0.2443 | STD amplification factor, 2000 ([7]; 1H iNα,DQ2α): 6.573 | STD % to SP1 ([7]; 1H iNβ): 38.4337% | STD amplification factor as fraction of highest SP1:PBP5 value ([7]; 1H iNβ): 0.3843 | STD amplification factor, 2000 ([7]; 1H iNβ): 10.3419

Reference: PMC12717099, “Peptidoglycan recruitment by a penicillin binding protein” (Nature Communications, 2025)
